Test results taken from US20080280810A1, “PEPTIDES HAVING AFFINITY FOR BODY SURFACES” (priority 2006, published 2008).

What was measured:
[1] = Co-application of multi-block peptide with semi-permanent dye (Arianor Ebony), color retention; design: species or system human; key: ΔE of peptide sample minus peptide-free control; larger = better retention; settings: difference in Delta E between peptide sample and peptide free control after 3 embrocation cycles (about 12 manual shampoos); pH 8.5-9.0; >2 benefit, >4 substantial benefit
Method: (§1) A 0.5% aqueous solution of Arianor Ebony (Sensient Technologies Corp, Milwaukee, Wis.) containing 3% benzyl alcohol and 0.05% diazolidinyl urea (biocide) was prepared. Dye insolubles were removed by filtration and the pH of the dye solution was adjusted to 8.50-9.0, using ethanolamine.
(§2) Approximately 1 mL of the dye solution was added to selected wells of a 24-well plate (Thomson Instrument Co., Oceanside, Calif.; part # 931565). A multi-block peptide (see Table 12) was dissolved in a solution consisting of 3 wt % benzyl alcohol and 95 wt % water to yield a peptide concentration of 2 wt % or approximately 20 mg/mL. The pH was adjusted to 8.5-9.0 using ethanolamine. The peptide solution was then pipetted into test wells containing dye solution in the amount of 1 mL or 0.2 mL respectively. The total volume in each test well was then adjusted to 2 mL where necessary using 3% aqueous benzyl alcohol (pH adjusted to 8.5-9.0 with ethanolamine). Peptide free controls consisted of 1 mL of dye solution diluted to 2 mL with the pH adjusted aqueous benzyl alcohol solution.
(§3) Baseline […] readings were made on one inch long tresses (see below) using an X-RITE® SP78™ Sphere Spectrophotometer (X-Rite, Inc., Grandville, Mich.), by placing the hair tress into the photosensor and calculating L*, a* and b* parameters representing the photometer response. All measurements were the average of three individual determinations.
(§4) The tresses (potted on one end with resin) of natural white, 85% gray or regular bleached hair (International Hair Importers and Products, Bellerose, N.Y.) were immersed in the peptide/dye solution and the entire well plate was agitated on a VORTEX-GENIE® 2 Mixer (Scientific Industries, Bohemia, N.Y.) at a speed setting of 1 for 30 minutes. The tresses were removed from the wells, rinsed for 30 seconds under flowing deionized water and then air dried.
(§5) The following complement of beads was then added to each well containing a hair tress: (8 beads in all; 4 Novagen Coli Rollers Plating Beads—sterilized (EMD Biosciences, San Diego, Calif.; Catalog No. 71013), 2 BioSpec 6.35 mm glass beads (BioSpec Products, Bartlesville, Okla.; Catalog No. 11079635), and 2 BioSpec 3.2 mm Stainless Steel Bead (Catalog No. 11079132ss).
(§6) Then 2.5 mL of aqueous 50% Pantene Pro V® shampoo (Proctor & Gamble Co., Cincinnati, Ohio) was pipetted into each well. The plate was placed on a VWR® VX-2500 Multi-tube Vortexer (VWR, West Chester, Pa.) for 5 minutes to simulate shampooing with embrocation. The hair tresses were then rinsed under flowing deionized water and air dried. This cycle was repeated two more times except that the length of time was 10 minutes for both subsequent embrocation cycles. (This treatment was previously determined to simulate approximately 12 manual shampoo cycles.) At the conclusion of the third embrocation cycle L*, a* and b* values were measured and Delta E values (ΔE) were calculated using equation 1 below:
(§7) where L*=the lightness variable and a* and b* are the chromaticity coordinates of CIELAB colorspace as defined by the International Commission of Illumination (CIE) (Minolta, Precise Color Communication—Color Control From Feeling to Instrumentation, Minolta Camera Co., 1996).
(§8) The Delta E value (ΔE) indicates color retention relative to the non-dyed hair and larger Delta E values indicate better performance. Values listed in the table represent the difference in Delta E values between the peptide-containing sample and the peptide free control. This difference is indicative of color retention after shampoo or water rinse treatments and positive values indicate better performance relative to the peptide free controls (Table 12).

[2] = as above; design: species or system human; settings: difference in Delta E between peptide sample and peptide free control after 3 embrocation cycles (about 12 manual shampoos); pH 8.5-9.0; >2 benefit, >4 substantial benefit
Method: as §1, §2, §3, §4, §5, §6, §7, §8

[3] = Phage ELISA on pellicle coated HAP disks; assay type: binding, human; settings: over 10^10 pfu purified phage, anti-M13 HRP conjugate, TMB, no phage control 0.218
Method: A total of 20 selected phage candidates (Example 29) were used in a phage ELISA experiment. Purified phage lysates were used for binding to pellicle HAP disks using an anti-M13 phage antibody conjugated to horseradish-peroxidase, followed by the addition of chromogenic agent TMB, obtained from Pierce Biotechnology (Rockford, Ill.). The plates were read at A450 nm.
For each phage candidate to be tested, the pellicle coated HAP disks (3 mm diameter) was incubated for 1 h at room temperature with 200 μL of blocking buffer, consisting of 2% non-fat dry milk (Schleicher & Schuell, Inc.) in TBS. The blocking buffer was removed by aspirating the liquid out of each tube. The tube was rinsed 6 times with wash buffer consisting of TBST-0.05%. The wells were filled with 200 μL of TBST-0.5% containing 1 mg/mL BSA (bovine serum albumin) and then 10 μL (over 10^10 pfu) of purified phage stock was added. The samples were incubated at room temperature for 60 min with slow shaking. The non-binding phage were removed by washing 6 times with TBST-0.5%. Then, 100 μL of horseradish peroxidase/anti-M13 antibody conjugate (Amersham USA, Piscataway, N.J.), diluted 1:500 in the blocking buffer, was added and incubated for 1 h at room temperature. The conjugate solution was removed and was washed 6 times with TBST-0.5%. TMB (3,3′,5,5′-tetramethylbenzidine) substrate (200 μL), obtained from Pierce Biotechnology (Rockford, Ill.) was added to each well and the color was allowed to develop for 5 to 30 min, typically for 10 min, at room temperature. Then, stop solution (200 μL of 2 M H2SO4) was added to each well and the solution was transferred to a 96-well plate and the A450 was measured using a microplate spectrophotometer (Molecular Devices, Sunnyvale, Calif.).

[4] = HPLC analysis of peptide uptake by hair; assay type: binding, human; settings: 20 mM Tris pH 7.2, 0.15 M NaCl, room temperature, no dye; peptide 0.1 mg/mL (IB5A, A5) or 0.05 mg/mL (HC 71, HC 74)
Method: The purpose of this Example was to compare the speed of uptake by measuring the amount of various peptides including peptides of the invention bound to hair at different time points using a high performance liquid chromatography (HPLC) method. The peptides, HC 71, HC 74, IB5 (the hair-binding peptide sequence in HC 71), and A5 (the hair-binding peptide sequence in HC 74), were dissolved in 10 mL of 20 mM Tris, pH 7.2 buffer containing 0.15 M NaCl to give the peptide concentrations shown in Table 11. Natural white hair, 0.54 g, (International Hair Importers & Products Inc., Bellerose, N.Y.) was pre-equilibrated with 10 mL of Tris buffer for 30 min with mixing at room temperature. Then, the buffer was drained from the hair and 10 mL of one of the peptide solutions was added. The hair was incubated with the peptide solution at room temperature without mixing and samples were taken at 0, 30 and 60 min for HPLC analysis. For peptide uptake measurements in the presence of Acid Red 33 dye, the peptide solution was mixed 1:1 with an aqueous solution of the dye (0.5 wt %). Natural white hair (0.65 g) pre-wet with deionized water, was added to the peptide solutions and the solutions were incubated at room temperature without mixing. Samples were taken at time 0, 30, and 60 min for analysis by HPLC. The samples were analyzed using HPLC to determine the concentration of the peptide remaining in solution, and by difference, the amount of peptide taken up by the hair. The HPLC analysis was done using an Agilent liquid chromatograph (Agilent Technologies Inc., Wilmington, Del.) with a 5 μm Zorbax Eclipse XDB-C18 column (Agilent Technologies Inc.). The sample was diluted with distilled water containing 0.1% trifluoroacetic acid (typically a 10-fold dilution), and 5 to 50 μL was injected using a 100 μL injection loop. A solvent gradient elution was used with two solvents: Solvent A, consisting of acetonitrile with 0.1% aqueous trifluoracetic acid, and Solvent B, consisting of water with 0.1% trifluoroacetic acid. The gradient was from 10% acetonitrile to 80% acetonitrile at a rate of 1%/min over a period of 70 min. The flow rate was 1.25 mL/min. Detection was done with a photodiode array detector at 218 nm, 230 nm, and 278 nm.

Substance: A5-EGEGER (EQISGSLVAAPWEGEGER; Peptide having affinity for hair) [Peptide A5-EGEGER]
- ΔE Retention Ebony Dye Regular Bleached Hair [1]: −1.0
- ΔE Retention Ebony dye with Natural White Hair [1]: 5.7
- ΔE Retention Ebony Dye with 85% Gray Hair [2]: 3.7

Substance: A5-KRKRKD (EQISGSLVAAPWKRKRKD; Peptide having affinity for hair) [Peptide A5-KRKRKD]
- ΔE Retention Ebony Dye Regular Bleached Hair [1]: 1.09
- ΔE Retention Ebony dye with Natural White Hair [1]: 5.8
- ΔE Retention Ebony Dye with 85% Gray Hair [2]: −0.59

Substance: AHPESLGIKYALDGNSDPHA [Pell 1]
- O.D. at 450 nm [3]: 0.739

Substance: ASVSNYPPIHHLATSNTTVN [Pell 2]
- O.D. at 450 nm [3]: 0.75

Substance: DECMEPLNAAHCWR [Pell 3]
- O.D. at 450 nm [3]: 0.49

Substance: DECMHGSDVEFCTS [Pell 4]
- O.D. at 450 nm [3]: 0.664

Substance: DLCSMQMMNTGCHY [Pell 5]
- O.D. at 450 nm [3]: 0.83

Substance: DLCSSPSTWGSCIR [Pell 6]
- O.D. at 450 nm [3]: 0.735

Substance: DPNESNYENATTVSQPTRHL [Pell 7]
- O.D. at 450 nm [3]: 0.831

Substance: EPTHPTMRAQMHQSLRSSSP [Pell 8]
- O.D. at 450 nm [3]: 0.712

Substance: EQISGSLVAAPW (Hair-Binding Peptide) [Peptide A5, reference compound]
- % Uptake time = 0 min [4]: 0%
- % Uptake time = 30 min [4]: 2%
- % Uptake time = 60 min [4]: 4%

Substance: F4-KRKRKD (LDTSFHQVPFHQKRKRKD; Peptide having affinity for hair) [Peptide F4-KRKRKD]
- ΔE Retention Ebony Dye Regular Bleached Hair [1]: −2.66
- ΔE Retention Ebony dye with Natural White Hair [1]: 0.12
- ΔE Retention Ebony Dye with 85% Gray Hair [2]: 2.87

Substance: GNTDTTPPNAVMEPTVQHKW [Pell 9]
- O.D. at 450 nm [3]: 0.755

Substance: IB5-KRKRKD (TPPELLHGDPRSKRKRKD; Peptide having affinity for hair)
- ΔE Retention Ebony Dye Regular Bleached Hair [1]: −0.44
- ΔE Retention Ebony dye with Natural White Hair [1]: 4.49
- ΔE Retention Ebony Dye with 85% Gray Hair [2]: 1.2

Substance: KF11-EGEGED (NTSQLSTEGEGED; Peptide having affinity for hair)
- ΔE Retention Ebony Dye Regular Bleached Hair [1]: −4.05
- ΔE Retention Ebony dye with Natural White Hair [1]: 3.6
- ΔE Retention Ebony Dye with 85% Gray Hair [2]: 0.94

Substance: LDTSFHQVPFHQ (Peptide having affinity for hair) [Peptide F4, reference compound]
- ΔE Retention Ebony Dye Regular Bleached Hair [1]: 0.95
- ΔE Retention Ebony dye with Natural White Hair [1]: 5.17
- ΔE Retention Ebony Dye with 85% Gray Hair [2]: 3.24

Substance: NGPDMVQSVGKHKNS [Pell 10]
- O.D. at 450 nm [3]: 0.729

Substance: NGPEVRQIPANFEKL [Pell 11]
- O.D. at 450 nm [3]: 0.607

Substance: NNTSADNPPETDSKHHLSMS [Pell 12]
- O.D. at 450 nm [3]: 0.521

Substance: NNTWPEGAGHTMPSTNIRQA [Pell 13]
- O.D. at 450 nm [3]: 0.598

Substance: NPTATPHMKDPMHSNAHSSA [Pell 14]
- O.D. at 450 nm [3]: 0.7

Substance: NPTDHIPANSTNSRVSKGNT [Pell 15]
- O.D. at 450 nm [3]: 0.567

Substance: NPTDSTHMMHARNHE [Pell 16]
- O.D. at 450 nm [3]: 0.578

Substance: P-KRGRHKRPKRHK-GGG-IB5A-C (PKRGRHKRPKRHKGGGTPPELLHGAPRSC; Peptide having affinity for hair) [HC100]
- ΔE Retention Ebony Dye Regular Bleached Hair [1]: −0.27
- ΔE Retention Ebony dye with Natural White Hair [1]: −4.5
- ΔE Retention Ebony Dye with 85% Gray Hair [2]: 4.1

Substance: TPCAPASFNPHCSR [Pell 18]
- O.D. at 450 nm [3]: 0.416

Substance: TPCATYPHFSGCRA [Pell 19]
- O.D. at 450 nm [3]: 0.731

Substance: TPPELLHGAPRS (Hair-binding peptide) [IB5A, reference compound]
- % Uptake time = 0 min [4]: 0%
- % Uptake time = 30 min [4]: 8%

Substance: WCTDFCTRSTPTSTSRSTTS [Pell 20]
- O.D. at 450 nm [3]: 0.715
